Data taken from paper PMC6812009, “Covalent Aurora A regulation by the metabolic integrator coenzyme A” (Redox Biology, 2019).

Tested on: VEGFR
Test: Kinase profiling screen (radioactive filter-binding assay)
Format: biochemical, human
Conditions: 100 μM compound, 20 μM ATP
Experimental: Profiling of 117 protein kinases with CoA, dpCoA and ADP was carried out at the International Centre for Protein Kinase Profiling at the University of Dundee. Each compound was tested in vitro, in duplicate, at 100 μM final concentration using recombinant kinases, model substrates and optimal concentrations of ATP. Bacterially expressed full-length His-Aurora A was used to determine the IC50 value for CoA (in the presence or absence of DTT), dpCoA, ADP and desulfo-CoA. The assay was performed in the presence of 5 μM competing ATP. To examine whether the inhibitory effect of CoA on Aurora A is modulated by TPX2, IC50 values for CoA were also generated in the presence and absence of 1 μg TPX2 (residues 1–43) fragment.

CC(C)(COP(=O)(O)OP(=O)(O)OC[C@H]1O[C@@H](n2cnc3c(N)ncnc32)[C@H](O)[C@@H]1OP(=O)(O)O)[C@@H](O)C(=O)NCCC(=O)NCCS [CoA, Coenzyme A]
Kinase activity, % of activity in the absence of inhibitor: 81.0%
